Measurements taken from patent publication US20140371304A1, “METHOD FOR SUPPRESSING TUMORIGENICITY OF STEM CELLS” (SUCAMPO AG, priority 2013, published 2014).

Tested on: C57/BL6 mouse embryonic stem cells
Assay: Tumor formation in SCID-beige mice from mouse embryonic stem cells pre-treated with compound
Format: in vivo
Conditions: for Weight of kidney capsule tumor, mean / Volume of kidney capsule tumor, (after harvesting) mean / Volume of kidney capsule tumor, (within mice) mean / Weight of testis tumor, mean / Volume of testis tumor, (after harvesting) mean / Volume of testis tumor, (within mice) mean: MES cells treated with 1 micromolar for total 120 hrs, 1×10^6 cells/site injected to Fox Chase SCID-beige mice, 3 weeks post injection; for Weight of kidney capsule tumor, mean / Weight of testis tumor, mean: after harvesting; for Volume of kidney capsule tumor, (after harvesting) mean / Volume of testis tumor, (after harvesting) mean: measured after harvesting; for Volume of kidney capsule tumor, (within mice) mean / Volume of testis tumor, (within mice) mean: measured before harvesting; for tumorigenic potential of mouse ES cells: conclusion in words; for tumorigenic potential of mouse ES cells / volume and weight of the tumor tissues in kidneys and testes: MES cells treated with 1 micromolar, injected to SCID-beige mice; for volume and weight of the tumor tissues in kidneys and testes: result in words
Method: ESGRO COMPLETE™ C57/BL6 mouse embryonic stem cells (MES, Millipore # SF-CMTI-2) were grown in 0.1% gelatin coated T75 culture flasks using ESGRO complete serum free clonal grade medium (Millipore # SF001-B) and ESGRO complete supplement (Millipore # SF012-250, containing selective GSK3β inhibitor). Cells were treated for 96 hrs with either 1 micromolar of Compound-1 ((−)-7-[(2R,4aR,5R,7aR)-2-(1,1-difluoropentyl)-2-hydroxy-6-oxooctahydrocyclopenta[b]pyran-5-yl]heptanoic acid), Compound-2 ((+)-isopropyl (Z)-7-[(1R,2R,3R,5S)-3,5-dihydroxy-2-(3-oxodecyl)cyclopentyl]hept-5-enoate) or vehicle (0.1% DMSO) until they reached 60% confluence. Drugs and media were changed daily. Cells were incubated in the presence of freshly added drug for 96 hrs, and then tested for mycoplasma over the next 24 hrs. Therefore, the cells were exposed to vehicle or Compound-1 or -2 for a total of 120 hrs. The cells were harvested and mixed with 30% matrigel. The mixture was injected to Fox Chase SCID-beige mice at 1×10^6 cells/site Tumors were collected after 3 weeks of post injection from kidney and testis. Tumor volumes were measured before and after harvesting from the mice. Tumor weight was also measured after harvesting from mice.

| Structure (SMILES) | Weight of kidney capsule tumor, mean | Volume of kidney capsule tumor, (after harvesting) mean | Volume of kidney capsule tumor, (within mice) mean | Weight of testis tumor, mean | Volume of testis tumor, (after harvesting) mean | Volume of testis tumor, (within mice) mean | tumorigenic potential of mouse ES cells | volume and weight of the tumor tissues in kidneys and testes |
| --- | --- | --- | --- | --- | --- | --- | --- | --- |
| CCCCC(F)(F)[C@@]1(O)CC[C@H]2[C@@H](CC(=O)[C@@H]2CCCCCCC(=O)O)O1 [Compound-1, (−)-7-[(2R,4aR,5R,7aR)-2-(1,1-difluoropentyl)-2-hydroxy-6-oxooctahydrocyclopenta[b]pyran-5-yl]heptanoic acid] | 1.40 g | 2.10 cm^3 | 5.6 cm^3 | 1.87 g | 3.70 cm^3 | 10.42 cm^3 | greatly reduce | reduced |
| CCCCCCCC(=O)CC[C@@H]1[C@@H](C/C=C\CCCC(=O)OC(C)C)[C@@H](O)C[C@H]1O [Compound-2, (+)-isopropyl (Z)-7-[(1R,2R,3R,5S)-3,5-dihydroxy-2-(3-oxodecyl)cyclopentyl]hept-5-enoate] | 2.13 g | 5.44 cm^3 | 9.12 cm^3 | 1.33 g | 2.68 cm^3 | 5.66 cm^3 | greatly reduce | reduced |
